For three compounds, EC50 and IC50 results are on record in patent US9067928B2 (Genentech, Inc., priority 2008, dated 2015).

The test system of assay [1] is Mcl-1-/- mouse embryonic fibroblasts (MEF). The assay is described as follows: Cell viability assay for Mcl-1-/- mouse embryonic fibroblasts (CellTiter-Glo). The format is cell-based. The note with it: Fibroblast, 1% Fetal Bovine Serum, read-out: MEF Mcl-1-/- KO cell viability results (EC50). From the text: a. Cell Viability Assay for Mcl-1^−/− Mouse Embryonic Fibroblasts (MEF):
Neutralization of both […] and Mcl-1 anti-apoptotic proteins in normal cells is required before a cell undergoes apoptosis via the downstream Bax/Bak pathway See, Chen. L. et al. Mol. Cell (2005) 17, 393-403; Willis, S. N. et al. Genes Dev. (2005) 19, 1294-1305. A compound that only targets Bcl-xL should not affect normal cells, but could kill certain cancer cells if they rely more on Bcl-xL and less on other anti-apoptotic proteins, e.g. Mcl-1, for survival. To mirror this, compounds of the invention were tested for its effect on survival of wild type (wt) mouse embryo fibroblasts (MEFs), Bax/Bak double knockout (BB DKO) MEFs, MEFs that expressed Noxa, and MEFs that expressed Bad. Noxa specifically neutralizes Mcl-1. […] MEFs that express Noxa mirror cancer cell types that are reliant on Bcl-xL for survival and should be much more sensitive to killing by a Bcl-xL targeting compound than MEFs where both Bcl-xL and Mcl-1 are protective.
In this assay, Mcl-1^(−/−) cells were used to confirm that cell apoptosis in the presence of BH3 mimetic small molecules was due to predominantly Bcl-xL inactivation. This inactivation leaves Bax/Bak unconstrained and results in apoptosis. The […]-GLO Luminescent Cell Viability Assay is a homogeneous method of determining the number of viable cells in culture based on quantitation of the ATP present. The amount of ATP correlates with the presence of metabolically active cells such that following cell lysis the amount of ATP present is proportional to the amount of luminescence measured.
Mcl-1^(−/−) mouse embryonic fibroblasts (MEFs) are an adherent cell line prepared in house. MEFs were grown in Iwaki 75 cm^2 tissue culture flasks (cat #3123-075) with FMA media which consists of: • 89% DME Kelso • 10% heat-inactivated foetal calf serum (FCS) (Hyclone cat #SH30396.03) • 1% 10 mM asparagine (Fluka cat #11149) • 275 μl of a 1:2000 dilution of 2-mercaptoethanol is added to the final 500 ml volume of FMA (Sigma cat #M7522; diluted in MT-PBS)
FMA was stored at 4° C. and used at 37° C. MEFs were cultured in FMA media and harvested in MT-PBS and trypsin. For MEF cell viability assays, cells were seeded separately in plates with 10% FCS-FMA and 1% FCS-FMA. […]
Automated Systems that can be used in this assay include: 1) Multidrop—The MULTIDROP 384 (ThermoLabsystems) dispenser was used to dispense cells aseptically into the assay plates: 2) MiniTrak—The […] system from Perkin Elmer was used for titration of the compound plates; 3) Zymark—The ZYMARK SCICLONE ALH3000 System with 100 nL pintool head was used for compound addition to the cells; 4) EnVision—The ENVISION plate reader was used to measure the viability via the detection of the luminescence. […]

Assay [2] has as its target T1, Bcl-xL (Homo sapiens, UniProt Q07817).
T1 construct: made in house
Put plainly: Alpha Screen Bcl-xL binding assay, competition with Bim26-mer. The note with it: values listed in the order of Table 1; read-out: Alphascreen results (IC50). Here is the method: The measurement of competition of compounds of the invention with Bim26-mer for a Bcl-2 family protein binding site using an Alpha Screen Bcl-xL Binding Assay:
The BH3 proteins ALPHASCREEN™ assay was used to identify active small molecules Bcl-2 family protein screen. e.g., Bcl-xL, hmMcl-1 screen. To determine an accurate estimation of the IC50, the compounds were routinely tested at starting concentrations, 100 μM and/or 1 μM and serially titrated 3 fold over 11 dilutions.
The beads come in close proximity when the protein and the peptides interact. Donor beads contain a photosensitiser that converts oxygen to an excited form of O2 at an excitation of 680 nm. Energy is transformed from the singlet oxygen and reacts with chemiluminescers on the acceptor bead, resulting in light emission at 520-620 nm. […] With this information, the IC50 of each compound was calculated
GST-Bcl-xL, GST-hmMcl-1 and biotinylated GST proteins were prepared in-house and were stored as stock solutions at −80° C. The biotinylated-Bak, and biotinylated-Bim peptides were purchased from Auspep and were stored as 500 μM stock solutions in 100% DMSO at −80° C. The ALPHASCREEN™ GST (Glutathione-S-Transferase) Detection Kit was obtained from Perkin Elmer Lifesciences (Cat #6760603R). The Proxiplates, white 384 well flat-Bottom plates were purchased from Interpath Services, Melbourne (Cat #784075). The seals to cover the plates were purchased from Proscience. Melbourne (Cat#784075). DMSO was purchased from AnalaR. The 384 deep well plates and the Polypropylene 50 μL, V bottom polypropylene compound plates were purchased from Matrical.
Compounds of the invention were prepared as 10 mM stocks with 100% DMSO on the day prior to performing the assay. […] To achieve a final compound concentration of 1 μM, in a separate matrical plate, 28 μL of 100% DMSO and 2 μL of 10 mM compound was added to a well, mixed well. 2 μL of this solution was taken and added to 38 μL of 100% DMSO. 20 μL of this solution was added to the test matrical plate. Several control compounds were included in the test plates. For the control wells 15 μL 100% DMSO only was added to the appropriate wells of each plate. The compound plates were then serially diluted 2 fold using the MiniTrak. Once titrations were complete, the compound plate was immediately covered with a foil seal to prevent evaporation.
The assay and bead buffers were prepared fresh. Each titrated compound plate was assayed in duplicate. The following volumes were sufficient to run 12 Proxiplates (4 assay plates run in duplicate in each of Bclxl, hmMcl and counter assays)
Protein and Peptide Preparation; and Assay Performance • 1. The assay and bead buffers were used to prepare the acceptor and donor solutions. ALPHASCREEN™ beads are light sensitive and therefore prepared in a darkened room. 2.5 μL of beads were added per 1 mL of buffer. • 2. The volume of protein or peptide to add was calculated using the following formula:
[formula] • C1=Final Concentration of protein/peptide • C2=Stock Concentration of protein/peptide • V1=Total Volume of Acceptor/Donor Solution • V2=Volume of stock protein/Peptide to add to Acceptor/Donor solution • 3. The assay components were prepared as separate Acceptor and Donor Solutions. The Acceptor Solution contained Acceptor heads and target protein, while the Donor Solution contained Donor beads and biotinylated peptide.
• 4. After the solutions were prepared, they were left to incubate for 30 minutes at room temperature to allow the beads to bind to the protein and the peptide. • 5. 50 μL of Bcl-xL solution, 50 μL of hmMcl-1 solution and 50 µL of biotinylated-GST were added into separate deep wells on an assay plate. A control […]. Assay/Bead buffer was added separate well plates (no protein). • 6.
In general terms: In Alpha technology, singlet oxygen from a donor bead excites a nearby acceptor bead.

T1 sequence (Q07817 whole entry, species assumed): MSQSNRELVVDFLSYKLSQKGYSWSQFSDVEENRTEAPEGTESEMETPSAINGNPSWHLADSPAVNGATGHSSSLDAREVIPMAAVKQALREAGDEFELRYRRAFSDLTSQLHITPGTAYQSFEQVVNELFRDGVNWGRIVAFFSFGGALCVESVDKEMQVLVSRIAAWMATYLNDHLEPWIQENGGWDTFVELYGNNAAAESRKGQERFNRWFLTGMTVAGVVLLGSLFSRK

Consider `O=C(O)c1nc(-c2ccc3c(c2)N(C(=O)Nc2nc4ccccc4s2)CCC3)sc1/C=C/c1ccccc1` [Example 74, (E)-2-(1-(benzo[d]thiazol-2-ylcarbamoyl)-1,2,3,4-tetrahydroquinolin-7-yl)-5-styrythiazole-4-carboxylic acid], for which the EC50 in assay [1] came out at 60 nM. In assay [2], the IC50 – broadly, the concentration that gives 50% inhibition – is 3 nM.

`CC(C)Oc1ccc(-c2sc(-c3ccc4c(c3)N(C(=O)Nc3nc5ccccc5s3)CCC4)nc2C(=O)O)cc1` [Example 79, 2-(1-(benzo[d]thiazol-2-ylcarbamoyl)-1,2,3,4-tetrahydroquinolin-7-yl)-5-(4-isopropoxyphenyl)thiazole-4-carboxylic acid]: in assay [1], the EC50 came to 210 nM. Also, the IC50 in assay [2] came to 6 nM.

In the case of `O=C(O)c1nc(-c2ccc3c(c2)N(C(=O)Nc2nc4ccccc4s2)CCC3)ccc1OCCCc1ccccc1` [Example 90, 6-(1-(benzo[d]thiazol-2-ylcarbamoyl)-1,2,3,4-tetrahydroquinolin-7-yl)-3-(3-phenylpropoxy)picolinic acid], in assay [1], the EC50 stood at 590 nM. The IC50 in assay [2] stood at 10 nM.
